US20260274814A1, “THIENYL COMPOUNDS FOR THE TREATMENT OF A CENTRAL NERVOUS SYSTEM DISEASE OR DISORDER” (Coreterra Therapeutics, Inc., priority 2023, published 2026)
Structures can show the parent of a compound that is named as a salt.

Test system: mice
Assay: Neuropharmacological Assay (SmartCube): automated behavioral signature of compound-treated mice compared with a database of reference drug classes
Assay type: in vivo
Settings: for AD / UK / AG / AN / AP / AX / CE / HL / MS / PS / SH: SmartCube probability class, 3.0 mg/kg dose, i.p. 15 min before the behavioral test; for MED / minimal effective dose: minimal effective dose: dose having 45% or more total activity in SmartCube, i.p., if only one dose was tested, that dose is shown; for minimal effective dose: Mus musculus, ip, read-out: MED
Method in brief: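 Probabilities reflect how closely the digitally recorded behavioural signature at 3.0 mg/kg i.p. matched each reference class (antipsychotic, anxiolytic, antidepressant etc.). Dosing occurred 15 min before testing. Minimal effective dose was the dose giving 45% or more total activity.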

Compound | AD | UK | MED [mpk] | minimal effective dose [mg/kg] | AG | AN | AP | AX | CE | HL | MS | PS | SH | UK (hydrochloride, 3 mg/kg) | AP (formate salt, 3 mg/kg) | UK (formate salt, 3 mg/kg) | MED (formate salt) [mpk] | AP (hydrochloride, 3 mg/kg) | MED (hydrochloride) [mpk] | AX (hydrochloride, 3 mg/kg)
CNC1COc2scc(C(F)(F)F)c2C1 (single isomer, unassigned) [Compound 290, N-methyl-5-(trifluoromethyl)-3,4-dihydro-2H-thieno[2,3-b]pyran-3-amine hydrochloride] | ND (^ <4%) | + (≥4%) | >3 | – | – | – | – | – | – | – | – | – | – | – | – | – | – | – | – | –
CCC1(NC)CCc2sccc2C1 (single isomer, unassigned) [Compound 291, 5-ethyl-N-methyl-6,7-dihydro-4H-benzothiophen-5-amine hydrochloride] | ND (^ <4%) | – | – | > 3 | ND (^ <4%) | ND (^ <4%) | ND (^ <4%) | ND (^ <4%) | ND (^ <4%) | ND (^ <4%) | ND (^ <4%) | ND (^ <4%) | ND (^ <4%) | + (≥4%) | – | – | – | – | – | –
CCC1(NC)CCc2sccc2C1 (single isomer, unassigned) [Compound 292, 5-ethyl-N-methyl-6,7-dihydro-4H-benzothiophen-5-amine hydrochloride] | ND (^ <4%) | – | >3 | – | ND (^ <4%) | ND (^ <4%) | ND (^ <4%) | ND (^ <4%) | ND (^ <4%) | ND (^ <4%) | ND (^ <4%) | ND (^ <4%) | ND (^ <4%) | ++ (≥24%) | – | – | – | – | – | –
CNC1COc2sccc2C1 (single isomer, unassigned) [Compound 293, N-methyl-3,4-dihydro-2H-thieno[2,3-b]pyran-3-amine formate salt] | ND (^ <4%) | – | – | < 3 | ND (^ <4%) | ND (^ <4%) | – | ND (^ <4%) | ND (^ <4%) | ND (^ <4%) | ND (^ <4%) | ND (^ <4%) | ND (^ <4%) | – | ++++ (≥74%) | ND (^ <4%) | – | – | – | –
CNC1COc2sccc2C1 (single isomer, unassigned) [Compound 294, N-methyl-3,4-dihydro-2H-thieno[2,3-b]pyran-3-amine formate salt] | ND (^ <4%) | – | – | – | ND (^ <4%) | ND (^ <4%) | – | ND (^ <4%) | ND (^ <4%) | ND (^ <4%) | ND (^ <4%) | ND (^ <4%) | ND (^ <4%) | – | ND (^ <4%) | + (≥4%) | >3 | – | – | –
Cc1csc2c1OCC(N)C2 (single isomer, unassigned) [Compound 295, 3-methyl-6,7-dihydro-5H-thieno[3,2-b]pyran-6-amine hydrochloride] | ND (^ <4%) | – | – | 3 | ND (^ <4%) | ND (^ <4%) | – | ND (^ <4%) | ND (^ <4%) | ND (^ <4%) | ND (^ <4%) | ND (^ <4%) | ND (^ <4%) | ND (^ <4%) | – | – | – | +++ (≥49%) | – | –
Cc1csc2c1OCC(N)C2 (single isomer, unassigned) [Compound 296, 3-methyl-6,7-dihydro-5H-thieno[3,2-b]pyran-6-amine hydrochloride] | ND (^ <4%) | – | – | – | ND (^ <4%) | ND (^ <4%) | – | ND (^ <4%) | ND (^ <4%) | ND (^ <4%) | ND (^ <4%) | ND (^ <4%) | ND (^ <4%) | + (≥4%) | – | – | – | ND (^ <4%) | >3 | –
CNC1COc2c(C)csc2C1 (single isomer, unassigned) [Compound 297, N, 3-dimethyl-6,7-dihydro-5H-thieno[3,2-b]pyran-6-amine hydrochloride] | ND (^ <4%) | ND (^ <4%) | – | 3 | ND (^ <4%) | ND (^ <4%) | ND (^ <4%) | – | ND (^ <4%) | ND (^ <4%) | ND (^ <4%) | ND (^ <4%) | ND (^ <4%) | – | – | – | – | – | – | ND (^ <4%)
CNC1COc2c(C)csc2C1 (single isomer, unassigned) [Compound 298, N, 3-dimethyl-6,7-dihydro-5H-thieno[3,2-b]pyran-6-amine hydrochloride] | ND (^ <4%) | ND (^ <4%) | 3 | – | ND (^ <4%) | ND (^ <4%) | ND (^ <4%) | – | ND (^ <4%) | ND (^ <4%) | ND (^ <4%) | ND (^ <4%) | ND (^ <4%) | – | – | – | – | – | – | +++ (≥49%)
CNC1COc2c(C(F)(F)F)csc2C1 (single isomer, unassigned) [Compound 309, N-methyl-3-(trifluoromethyl)-6,7-dihydro-5H-thieno[3,2-b]pyran-6-amine hydrochloride] | ND (^ <4%) | – | – | – | ND (^ <4%) | ND (^ <4%) | ND (^ <4%) | ND (^ <4%) | ND (^ <4%) | ND (^ <4%) | ND (^ <4%) | ND (^ <4%) | ND (^ <4%) | ND (^ <4%) | – | – | – | – | 1 | –
CNC1COc2c(C(F)(F)F)csc2C1 (single isomer, unassigned) [Compound 310, N-methyl-3-(trifluoromethyl)-6,7-dihydro-5H-thieno[3,2-b]pyran-6-amine hydrochloride] | ND (^ <4%) | – | – | – | ND (^ <4%) | ND (^ <4%) | ND (^ <4%) | ND (^ <4%) | ND (^ <4%) | ND (^ <4%) | ND (^ <4%) | ND (^ <4%) | ND (^ <4%) | ++ (≥24%) | – | – | – | – | >3 | –
N#Cc1scc2c1CC(N)CC2 (single isomer, unassigned) [Compound 312, 6-amino-4,5,6,7-tetrahydro-2-benzothiophene-1-carbonitrile hydrochloride] | ND (^ <4%) | – | – | 3 | ND (^ <4%) | ND (^ <4%) | ND (^ <4%) | ND (^ <4%) | ND (^ <4%) | ND (^ <4%) | ND (^ <4%) | ND (^ <4%) | ND (^ <4%) | +++ (≥49%) | – | – | – | – | – | –
N#Cc1scc2c1CC(N)CC2 (single isomer, unassigned) [Compound 313, 6-amino-4,5,6,7-tetrahydro-2-benzothiophene-1-carbonitrile hydrochloride] | ND (^ <4%) | – | – | – | ND (^ <4%) | ND (^ <4%) | ND (^ <4%) | ND (^ <4%) | ND (^ <4%) | ND (^ <4%) | ND (^ <4%) | ND (^ <4%) | ND (^ <4%) | + (≥4%) | – | – | – | – | >3 | –
